Data: patent US10933057B2 (priority 2017, dated 2021)

Test system: patients
Set-up: species or system human
Settings: in vivo

CCCCC(C)(O)C/C=C/[C@H]1[C@H](O)CC(=O)[C@@H]1CCCCCCC(=O)OC (mixture of isomers) [Misoprostol]
Pain (No pain −, Pain +): +
